One experiment concerns DLD1 colon cancer cells. The experiment can be described thus: Protein L immunodetection of variant 13 nuclear penetration with importin pathway inhibitors, DLD1. It is filed as cell-based. The note with it: 10 μM variant 13 co-incubated with 0, 10, 25, or 50 μM inhibitor. The protocol: (§1) For all experiments, cells were cultivated overnight to allow for attachment, followed by pretreatment with either control medium (absence of inhibitor), or medium containing inhibitor for durations previously-reported in the literature (see Table 5, below).
(§2) For endocytosis inhibition experiments, cells were cultivated in serum-free medium containing 1% v/v BSA to deplete endogenous serum levels. Following preincubation with inhibitors, cells were treated with either control medium or 10 μM variant 13, and the same dose of small molecule inhibitor for a further 30 minutes. For all experiments, cells were washed thrice, followed by immediate fixation with pre-chilled ice-cold ethanol. Subsequently, treated cells were probed using a protein L immunodetection approach to probe variant 13 nuclear uptake (Rattray et al., Biochem Biophys Res Commun 496, 858-864 (2018)). All monolayers were immediately imaged following color development on an Evos Fl microscope.
(§3) DLD-1 and A549 cells were treated with 10 μM variant 13 co-incubated with 0, 10, 25, or 50 μM concentrations of ivermectin. Relative intensity of protein L nuclear staining as compared to amount of stain in cells treated without ivermectin was also quantified by ImageJ.
(§4) DLD-1 cells and A549 cells were treated with 10 μM variant 13 co-incubated with 0, 10, 25, or 50 μM concentrations of importazole and then immunostained for protein L.
(§5) DLD-1 cells and A549 cells were treated with 10 μM variant 13 co-incubated with 0, 10, 25, or 50 μM concentrations of mifepristone and then immunostained for protein L.

In another experiment the test system is A549 lung cancer cells. The experiment can be described thus: Protein L immunodetection of variant 13 nuclear penetration with importin pathway inhibitors, A549. It is filed as cell-based. As to conditions: 10 μM variant 13 co-incubated with 0, 10, 25, or 50 μM inhibitor. The protocol: as §1, §2, §3, §4, §5
Another experiment has as its system MCF7 breast cancer cells. The experiment can be described thus: Uptake of rhodamine-labeled variant 13 in live cells, light and fluorescence microscopy, MCF7. As to conditions: 50 μM ivermectin. The experiment is classed as cell-based. As for the experimental part: Live MCF7 breast cancer cells were treated with control or rhodamine-labeled variant 13 (Rh-variant 13)+/−50 μM ivermectin and were then visualized under light and fluorescence microscopy.

For experiment [1], the system named is DLD1 cells. Description: SLE sera nuclear import with nuclear import inhibitors, anti-human IgG immunostain. The experiment is classed as cell-based. The note with it: for effect on nuclear uptake of ANAs in SLE-19: SLE-19 serum. As for the experimental part: DLD1 cells were pre-treated with either control media, or media containing nuclear import inhibitors for four hours. Subsequent co-treatment with inhibitor and patient SLE serum (diluted 1:50) was performed for one hour at 37° C. Following treatment, cells were fixed, blocked and probed with an alkaline-phosphatase anti-human IgG […] antibody overnight (Fisher Scientific). Cell monolayers were washed, and color developed using NBT/BCIP reagent (Fisher Scientific) for the same duration across all experiments. Following chromogen color development, all monolayers were washed, and brightfield images acquired immediately on an Evos F microscope.

Experiment [2] concerns DLD1 cells. Description: Nuclear penetration of scleroderma autoantibody SSC and effect of ivermectin, microscopic analysis. The experiment is classed as cell-based. An excerpt:
In addition to SLE, cell-penetrating autoantibodies are detected in other autoimmune diseases such as scleroderma. […] SSC was expressed in and purified from HEK293T cells.

In a further experiment the test system is DLD1 cancer cells. Description: Uptake of rhodamine-labeled variant 13 in live cells, light and fluorescence microscopy, DLD1. As to conditions: 50 μM importazole. The experiment is classed as cell-based. The protocol: Live DLD1 cancer cells were treated with control or rhodamine-labeled variant 13 (Rh-variant 13)+/−50 μM importazole and were then visualized under light and fluorescence microscopy.

For experiment [3], the system named is cell nuclei. Description: Nuclear penetration of humanized 3E10 variants compared with original 3E10 (D31N) di-scFv. The experiment is classed as cell-based. The note with it: for Nuclear localizing?: humanized 3E10 variants; for nuclear penetration compared to the prototype: vs original 3E10 (D31N) di-scFv. An excerpt:
A range of humanized 3E10 variants were generated with subtle differences in framework and CDR sequences.

Experiment [4] deals with cell nuclei. The note with it: known anti-dsDNA autoantibodies; cited from earlier work.

Where two headings read alike, the source gives them in different places.

Data on six molecules can be found in US20210137960A1, “COMPOSITIONS AND METHODS FOR INHIBITION OF NUCLEAR-PENETRATING ANTIBODIES” (Yale University, priority 2018, published 2021).

Take “22,23-dihydroavermectin B1a/B1b [ivermectin]”: the “effect on nuclear penetration by variant 13” value (shortened to “effect on nuclear penetration”) in the experiment on DLD1 colon cancer cells and with A549 lung cancer cells was “dose-dependent reduction in nuclear penetration” each time. Also, the “effect on cellular/nuclear uptake of rhodamine-labeled variant 13” value with MCF7 breast cancer cells is listed as “inhibited cellular/nuclear uptake”. Besides, the “effect on nuclear staining by ANAs in SLE sera” value in the experiment on DLD1 cells [1] (SLE-4, 8, 9, and 19 serum diluted 1:50, pre- and co-treatment) is listed as “reduced the nuclear staining associated with each sample”. Further, the “effect on nuclear uptake of SSC” value with DLD1 cells [2] is given as “inhibited the nuclear uptake of SSC”.

`CC(Nc1nc(N2CCCC2)nc2ccccc12)c1ccccc1` (centres unmarked) [importazole, N-(1-phenylethyl)-2-pyrrolidin-1-ylquinazolin-4-amine]: the “effect on nuclear penetration” value in the experiment with DLD1 colon cancer cells and with A549 lung cancer cells was “reduction in nuclear penetration” throughout. In the experiment on DLD1 cancer cells, the “effect on nuclear uptake of rhodamine-labeled variant 13” value is “inhibited nuclear uptake”. For the same molecule, the “effect on nuclear uptake of ANAs in SLE-19” value in the experiment on DLD1 cells [1] is “inhibit nuclear uptake of ANAs in SLE-19 in a dose-dependent manner”.

Turning to `CC#C[C@]1(O)CC[C@H]2[C@@H]3CCC4=CC(=O)CCC4=C3[C@@H](c3ccc(N(C)C)cc3)C[C@@]21C` [mifepristone, 11β-(4-Dimethylamino)phenyl-170-hydroxy-17-(1-propynyl)-estra-4,9-dien-3-one], the “effect on nuclear penetration” value in the experiment with DLD1 colon cancer cells and in the experiment on A549 lung cancer cells was “reduction in nuclear penetration” each time. Moreover, the “effect on nuclear uptake of ANAs in SLE-19” value in the experiment with DLD1 cells [1] is given as “inhibit nuclear uptake of ANAs in SLE-19 in a dose-dependent manner”.

B1: variant 10: humanized 3E10 variant, SEQ ID NOS:14, 22, and 32 (protein)
chain 1: EVQLVESGGGLVQPGGSLRLSCAASGFTFSNYGMHWVRQAPGKGLEWVSYISSSSSTIYYADSVKGRFTISRDNAKNSLYLQMNSLRAEDTAVYYCARRGLLLDYWGQGTTVTVSS
chain 2: DIQMTQSPSSLSASVGDRVTITCRASKSVSTSSYSYMHWYQQKPGKAPKLLIKYASYLESGVPSRFSGSGSGTDFTLTISSLQPEDFATYYCQHSREFPWTFGQGTKVEIK
chain 3: DIQMTQSPSSLSASVGDRVTITCRASKSVSTSSYSYMHWYQQKPGKAPKLLIKYASYLESGVPSRFSGSGSGTDFTLTISSLQPEDFATYYCQHSREFPWTFGQGTKVEIKRADAAPGGGGSGGGGSGGGGSEVQLVESGGGLVQPGGSLRLSCAASGFTFSNYGMHWVRQAPGKGLEWVSYISSSSSTIYYADSVKGRFTISRDNAKNSLYLQMNSLRAEDTAVYYCARRGLLLDYWGQGTTVTVSSASTKGPSVFPLAPLESSGSDIQMTQSPSSLSASVGDRVTITCRASKSVSTSSYSYMHWYQQKPGKAPKLLIKYASYLESGVPSRFSGSGSGTDFTLTISSLQPEDFATYYCQHSREFPWTFGQGTKVEIKRADAAPGGGGSGGGGSGGGGSEVQLVESGGGLVQPGGSLRLSCAASGFTFSNYGMHWVRQAPGKGLEWVSYISSSSSTIYYADSVKGRFTISRDNAKNSLYLQMNSLRAEDTAVYYCARRGLLLDYWGQGTTVTVSS
As for B1, in the experiment on cell nuclei [3], the “Nuclear localizing?” value is “Yes” and the “nuclear penetration compared to the prototype” value was “penetrated nuclei very well”.

B2: variant 13: humanized 3E10 variant, SEQ ID NOS:17, 23, and 35, expressed in a CHO cell system (protein)
chain 1: EVQLVESGGGLVQPGGSLRLSCAASGFTFSNYGMHWVRQAPGKGLEWVSYISSGSSTIYYADSVKGRFTISRDNAKNSLYLQMNSLRAEDTAVYYCARRGLLLDYWGQGTTVTVSS
chain 2: DIQMTQSPSSLSASLGDRATITCRASKTVSTSSYSYMHWYQQKPGQPPKLLIKYASYLESGVPSRFSGSGSGTDFTLTISSLQPEDAATYYCQHSREFPWTFGGGTKVEIK
chain 3: DIQMTQSPSSLSASLGDRATITCRASKTVSTSSYSYMHWYQQKPGQPPKLLIKYASYLESGVPSRFSGSGSGTDFTLTISSLQPEDAATYYCQHSREFPWTFGGGTKVEIKRADAAPGGGGSGGGGSGGGGSEVQLVESGGGLVQPGGSLRLSCAASGFTFSNYGMHWVRQAPGKGLEWVSYISSGSSTIYYADSVKGRFTISRDNAKNSLYLQMNSLRAEDTAVYYCARRGLLLDYWGQGTTVTVSSASTKGPSVFPLAPLESSGSDIQMTQSPSSLSASLGDRATITCRASKTVSTSSYSYMHWYQQKPGQPPKLLIKYASYLESGVPSRFSGSGSGTDFTLTISSLQPEDAATYYCQHSREFPWTFGGGTKVEIKRADAAPGGGGSGGGGSGGGGSEVQLVESGGGLVQPGGSLRLSCAASGFTFSNYGMHWVRQAPGKGLEWVSYISSGSSTIYYADSVKGRFTISRDNAKNSLYLQMNSLRAEDTAVYYCARRGLLLDYWGQGTTVTVSS
B2: in the experiment with cell nuclei [3], the “Nuclear localizing?” value was “Yes” and the “nuclear penetration compared to the prototype” value was “penetrated nuclei very well”.

B3: 5C6: monoclonal anti-DNA antibody with nucleolytic activity from MRL/lpr lupus mouse model hybridoma (antibody, listed as Mus musculus, V domains shown)
VL: DIVLTQSPASLAAVSLGERATISYRASKSVSTSGYSYMHWNQQKPGQAPRLLIYLVSNLESGVPARFSGSGSGTDFTLNIHPVEEEDAATYYCQHIRELDTFFGGGTKLEIK
VH: QLKLVESGGGLVKPGGSLKLSCAASGFTFSSYTMSWVRQTPAKRLEWVATISSGGGSTYYPDSVKGRFTISRDNARNTLYLQMSSLRSEDTAMYYCARRAYSKRGAMDYWGQGTSVTVSS
In the case of B3, the “Nuclear localizing?” value in the experiment on cell nuclei [4] is given as “Yes”.
